The values below are quoted from earlier work in patent US20250231185A1, “Coronavirus T Cell Epitopes, Megapools and Uses Thereof” (La Jolla Institute for Immunology, priority 2021, published 2025).

In one data set the test system is CD8+ T cells. To be noted: CD8R (D) megapool epitopes; dominant = recognized by 3 or more donors/different studies; cited from earlier work.
For the substance 1666 (SLVKPSFYV) [compound 1666], the Dominant entry is on record as “Yes (more dominant epitopes are defined by being recognized by 3 or more donors/different studies)”. For the substance 1667 (YVYSRVKNL) [compound 1667], the Dominant result is on record as “Yes (more dominant epitopes are defined by being recognized by 3 or more donors/different studies)”. Turning to 1668 (GTITVEELK) [compound 1668], the Dominant result is recorded as “Yes (more dominant epitopes are defined by being recognized by 3 or more donors/different studies)”. For the substance 1669 (KLLEQWNLV) [compound 1669], the Dominant result was “Yes (more dominant epitopes are defined by being recognized by 3 or more donors/different studies)”. As to 1670 (FLFLTWICL) [compound 1670], the Dominant result is “Yes (more dominant epitopes are defined by being recognized by 3 or more donors/different studies)”. Turning to 1671 (NRFLYIIKL) [compound 1671], the Dominant entry is given as “Yes (more dominant epitopes are defined by being recognized by 3 or more donors/different studies)”. On to 1672 (TLACFVLAAV) [compound 1672], for which the Dominant entry is recorded as “Yes (more dominant epitopes are defined by being recognized by 3 or more donors/different studies)”. Regarding 1674 (RLFARTRSMW) [compound 1674], the Dominant result is “Yes (more dominant epitopes are defined by being recognized by 3 or more donors/different studies)”. Regarding 1675 (SMWSFNPET) [compound 1675], the Dominant entry is reported as “Yes (more dominant epitopes are defined by being recognized by 3 or more donors/different studies)”. As for 1676 (SELVIGAVIL) [compound 1676], the Dominant result is listed as “Yes (more dominant epitopes are defined by being recognized by 3 or more donors/different studies)”. For 1677 (AVILRGHLR) [compound 1677], the Dominant entry is “Yes (more dominant epitopes are defined by being recognized by 3 or more donors/different studies)”. As for 1678 (ATSRTLSYY) [compound 1678], the Dominant entry is “Yes (more dominant epitopes are defined by being recognized by 3 or more donors/different studies)”. On to 1679 (ATSRTLSYYK) [compound 1679], for which the Dominant entry is “Yes (more dominant epitopes are defined by being recognized by 3 or more donors/different studies)”. 1680 (RYRIGNYKL) [compound 1680]: the Dominant result is listed as “Yes (more dominant epitopes are defined by being recognized by 3 or more donors/different studies)”.

For 1682 (NTASWFTAL) [compound 1682], the Dominant result is “Yes (more dominant epitopes are defined by being recognized by 3 or more donors/different studies)”.

Turning to 1683 (KFPRGQGVPI) [compound 1683], the Dominant entry is “Yes (more dominant epitopes are defined by being recognized by 3 or more donors/different studies)”. As for 1684 (FPRGQGVPI) [compound 1684], the Dominant entry is “Yes (more dominant epitopes are defined by being recognized by 3 or more donors/different studies)”. As to 1685 (YYRRATRRIR) [compound 1685], the Dominant result is reported as “Yes (more dominant epitopes are defined by being recognized by 3 or more donors/different studies)”. Regarding 1686 (RIRGGDGKMK) [compound 1686], the Dominant entry is given as “Yes (more dominant epitopes are defined by being recognized by 3 or more donors/different studies)”. As to 1687 (KMKDLSPRW) [compound 1687], the Dominant entry is reported as “Yes (more dominant epitopes are defined by being recognized by 3 or more donors/different studies)”. On to 1688 (LSPRWYFYYL) [compound 1688], for which the Dominant result was “Yes (more dominant epitopes are defined by being recognized by 3 or more donors/different studies)”. As to 1689 (SPRWYFYYL) [compound 1689], the Dominant entry is “Yes (more dominant epitopes are defined by being recognized by 3 or more donors/different studies)”.

1690 (GTGPEAGLPY) [compound 1690]: the Dominant entry is recorded as “Yes (more dominant epitopes are defined by being recognized by 3 or more donors/different studies)”. Take 1691 (ATEGALNTPK) [compound 1691]: the Dominant result is on record as “Yes (more dominant epitopes are defined by being recognized by 3 or more donors/different studies)”. Consider 1692 (NPANNAAIVL) [compound 1692], for which the Dominant result is reported as “Yes (more dominant epitopes are defined by being recognized by 3 or more donors/different studies)”. Regarding 1693 (VLQLPQGTTL) [compound 1693], the Dominant result was “Yes (more dominant epitopes are defined by being recognized by 3 or more donors/different studies)”.

Turning to 1694 (LALLLLDRL) [compound 1694], the Dominant result was “Yes (more dominant epitopes are defined by being recognized by 3 or more donors/different studies)”. In the case of 1695 (LLLLDRLNQL) [compound 1695], the Dominant result was “Yes (more dominant epitopes are defined by being recognized by 3 or more donors/different studies)”. On to 1696 (LLLDRLNQL) [compound 1696], for which the Dominant entry is on record as “Yes (more dominant epitopes are defined by being recognized by 3 or more donors/different studies)”. In the case of 1697 (QQQQGQTVTK) [compound 1697], the Dominant result is given as “Yes (more dominant epitopes are defined by being recognized by 3 or more donors/different studies)”. With 1698 (KPRQKRTAT) [compound 1698], the Dominant result is recorded as “Yes (more dominant epitopes are defined by being recognized by 3 or more donors/different studies)”.

In the case of 1701 (AQFAPSASAF) [compound 1701], the Dominant result is listed as “Yes (more dominant epitopes are defined by being recognized by 3 or more donors/different studies)”.

The data set is the same for the next values; noted with them: SARS-CoV-2 Ag S; T cell type recognizing the epitope; cited from earlier work.
Turning to 1384 (LPPLLTDEM) [compound 1384], the Restriction result is recorded as “CD8”. For 1385 (LLTDEMIAQY) [compound 1385], the Restriction result is listed as “CD8”. Turning to 1387 (LTDEMIAQYT) [compound 1387], the Restriction result was “CD8”. As to 1388 (TDEMIAQY) [compound 1388], the Restriction result is “CD8”.

On to 1391 (WTFGAGAAL) [compound 1391], for which the Restriction result is “CD8”. For the substance 1393 (QIPFAMQMAY) [compound 1393], the Restriction result is “CD8”. For 1394 (IPFAMQMAY) [compound 1394], the Restriction entry is “CD8”.

Take 1395 (FAMQMAYRF) [compound 1395]: the Restriction result is on record as “CD8”. Regarding 1397 (YENQKLIANQF) [compound 1397], the Restriction result is “CD8”. For 1399 (IANQFNSAI) [compound 1399], the Restriction entry is listed as “CD8”. Regarding 1400 (LSSTASALGK) [compound 1400], the Restriction entry is recorded as “CD8”.

With 1402 (ALNTLVKQL) [compound 1402], the Restriction entry is on record as “CD8”. As for 1403 (SVLNDILSR) [compound 1403], the Restriction result is recorded as “CD8”. Take 1404 (SVLNDILSRL) [compound 1404]: the Restriction result was “CD8”.

For 1406 (RLDKVEAEVQI) [compound 1406], the Restriction entry is given as “CD8”. 1409 (AEVQIDRL) [compound 1409]: the Restriction result is listed as “CD8”. Turning to 1410 (AEVQIDRLI) [compound 1410], the Restriction result is on record as “CD8”. Turning to 1412 (ITGRLQSLQTY) [compound 1412], the Restriction result is listed as “CD8”. 1413 (LITGRLQSL) [compound 1413]: the Restriction result is “CD8”. Turning to 1414 (RLQSLQTY) [compound 1414], the Restriction entry was “CD8”. 1417 (AEIRASANL) [compound 1417]: the Restriction result was “CD8”. With 1418 (RASANLAATK) [compound 1418], the Restriction result is on record as “CD8”. As to 1419 (SKRVDFCGKGY) [compound 1419], the Restriction result was “CD8”. On to 1420 (RVDFCGKGY) [compound 1420], for which the Restriction entry is on record as “CD8”.

With 1424 (FPQSAPHGV) [compound 1424], the Restriction entry is “CD8”. Turning to 1426 (QSAPHGVVF) [compound 1426], the Restriction entry is reported as “CD8”. In the case of 1430 (GVVFLHVTY) [compound 1430], the Restriction entry was “CD8”. 1432 (HVTYVPAQEK) [compound 1432]: the Restriction entry is recorded as “CD8”. Turning to 1434 (VTYVPAQEK) [compound 1434], the Restriction result was “CD8”. Take 1435 (TYVPAQEKNFT) [compound 1435]: the Restriction entry is “CD8”.

As for 1436 (FPREGVFV) [compound 1436], the Restriction entry is “CD8”. On to 1438 (GVFVSNGTHW) [compound 1438], for which the Restriction entry is reported as “CD8”. For 1439 (VFVSNGTHW) [compound 1439], the Restriction result is on record as “CD8”. On to 1440 (VFVSNGTHWF) [compound 1440], for which the Restriction result is “CD8”. For the substance 1441 (FVSNGTHWF) [compound 1441], the Restriction result is given as “CD8”. For the substance 1443 (HWFVTQRNF) [compound 1443], the Restriction result is recorded as “CD8”.

In the case of 1444 (WFVTQRNFY) [compound 1444], the Restriction result is reported as “CD8”. For the substance 1445 (IITTDNTFV) [compound 1445], the Restriction result was “CD8”. For the substance 1448 (DSFKEELDKY) [compound 1448], the Restriction result is “CD8”. For the substance 1449 (SFKEELDKY) [compound 1449], the Restriction entry is on record as “CD8”. On to 1450 (NASVVNIQK) [compound 1450], for which the Restriction entry is listed as “CD8”. On to 1454 (NESLIDLQEL) [compound 1454], for which the Restriction entry was “CD8”. Regarding 1455 (SLIDLQEL) [compound 1455], the Restriction entry is on record as “CD8”.

Take 1456 (LQELGKYEQY) [compound 1456]: the Restriction result is recorded as “CD8”. As for 1457 (QELGKYEQY) [compound 1457], the Restriction entry is on record as “CD8”. Regarding 1459 (YEQYIKWPW) [compound 1459], the Restriction entry is “CD8”. For the substance 1460 (QYIKWPWYIW) [compound 1460], the Restriction entry was “CD8”. Consider 1464 (CMTSCCSCLK) [compound 1464], for which the Restriction result is given as “CD8”.

Consider 1465 (FDEDDSEPVL) [compound 1465], for which the Restriction result is given as “CD8”. As for 1467 (EPVLKGVKL) [compound 1467], the Restriction result is reported as “CD8”. As to 1468 (VLKGVKLHY) [compound 1468], the Restriction result was “CD8”.
